Assay results published in patent publication US20260216189A1, “TOPICAL COMPOSITIONS CONTAINING A JANUS KINASE INHIBITOR” (Zoetis Services LLC, priority 2023, published 2026).

How the values were obtained:
[1] = in vivo, po, 0.4 mg/kg
Experimental: (§1) The pharmacokinetics and pharmacodynamics (PK/PD) of orally dosed oclacitinib (0.4-0.6 mg/kg) is well understood. […] An oral 14C-oclacitinib study determined that a single 0.4 mg/kg dose achieved a mean skin concentration of 212 ng equivalents/gram of tissue. A house dust model (HDM) was used to assess the efficacy of the compositions described herein. The topical HDM challenge results in excoriation lesions and erythema at the challenge site. In one study, placebo (saline, TO1), triamcinolone acetonide 0.15 mg/mL (T02), oclacitinib maleate 7.5 mg/mL (T03) and oclacitinib maleate 10 mg/mL (T04) were topically administered to beagle dogs (8/group). The weights of drug in T02-T04 were freebase amounts.
Systemic plasma concentrations and skin concentrations 24 hours post dose were assessed for multiple compositions of the invention in a number of PK studies; including compositions with oclacitinib or oclacitinib maleate with API concentrations ranging from 1-10 mg/mL oclacitinib. […] The oral 14C-oclacitinib study determined that a 0.4 mg/kg oral dose of oclacitinib achieved a mean skin concentration of 212 ng equivalents/gram. […]

[2] = PK studies of topical compositions: systemic plasma and skin concentrations, single and repeat dose; type: in vivo
Experimental: Systemic plasma concentrations and skin concentrations 24 hours post dose were assessed for multiple compositions of the invention in a number of PK studies; including compositions with oclacitinib or oclacitinib maleate with API concentrations ranging from 1-10 mg/mL oclacitinib. The compositions tested to date have shown prolonged absorption that lasts at least 72 hours following a single dose and low topical bioavailability of less than 10% with single dose skin concentrations at least 20-80 times that observed in the oral single dose ^14C study. The oral 14C-oclacitinib study determined that a 0.4 mg/kg oral dose of oclacitinib achieved a mean skin concentration of 212 ng equivalents/gram. Permeation and penetration studies with compositions comprising a glycol, glycol ether and DMSO achieved single dose skin concentrations greater (28.4-54.5 μg/g) than that concentration achieved following oral administration, as mentioned above, and well above the reported oclacitinib IC50's for pro-inflammatory and pruritogenic cytokines.
The rate and amount of topical absorption can be a non-linear function of the API concentration of the composition. The topical compositions of the invention minimized systemic plasma oclacitinib concentrations while maintaining high skin concentrations. […] The studies to date and formulations described herein have shown that the compositions deliver skin concentrations greater than those observed with oral dosing. […] The topical single dose bioavailability is low, less than 5% when administered to an area that limits oral exposure from licking. […] Formulations with a lower oclacitinib concentration had lower systemic exposures.

[3] = system: IL-31 induced itch; details: orally dosed oclacitinib (0.4-0.6 mg/kg); cited from earlier work
[4] = subsequent study, 2-3 sprays of topical solution, skin concentrations; type: in vivo; details: 2.5-10 mg/mL, about 0.25 to 0.5 mL topical
Experimental: In a subsequent study, animals received 2.5-10 mg/mL oclacitinib by applying 2-3 sprays for a total of about 0.25 to 0.5 mL of the topical solution to an area of skin.

[5] = system: HDM challenge site (excoriation lesions and erythema); assay: house dust model (HDM) challenge, topical treatment of beagle dogs; colorimeter erythema and lesion scores; type: in vivo; details: for Post challenge total lesion scores compared to the saline group: treatment groups vs saline group
Experimental: as §1
Daily assessments were observed through Day 41. Colorimeter measurements provided quantified erythema scores. […] Lesions were observed and scored based on severity of erythema, papules and excoriations at the challenge site.

Row | Compound | mean skin concentration [1] [ng equivalents/gram] | 24-hour post dose skin concentrations following repeat dosing, fold higher ([2]; across study comparisons, repeat vs single dosing) | accumulation in skin and plasma ([2]; following multiple daily administrations) | systemic levels ([2]; following multiple daily doses) | bioavailability ([2]; plasma, topical, administered to an area that limits oral exposure from licking) [%] | systemic plasma concentrations: absorption and terminal phase ([2]; single and repeat dose studies) | PK following topical administration, maleate vs freebase formulations ([2]; topical) | Plasma concentrations effective in reducing IL-31 induced itch [3] | skin concentrations of oclacitinib [4] | erythema reduction compared to saline (colorimeter) ([5]; 7.5 mg/mL topical, Day 36 (P=0.0993)) | area under the curve (AUC) of total lesion scores compared to saline ([5]; 10 mg/mL (p<0.08)) | erythema reduction compared to saline (colorimeter) ([5]; 10 mg/mL topical, Days 27, 28, and 36 (p≤0.0948)) | lesion score reduction after the dosing period ended, versus other treatment groups ([5]; after the 28 day dosing period, observation through Day 41) | erythema reduction compared to saline (colorimeter) ([5]; both concentrations (7.5 and 10 mg/mL), topical once daily, after approximately 1 month of dosing) | Post challenge total lesion scores compared to the saline group [5] | lesion score reduction compared to saline ([5]; spray 7.5 mg/mL, Days 4, 7, 11, 26, 27, 30, and 39) | lesion score reduction compared to saline ([5]; spray 10 mg/mL, Days 7-11, 26, 30, and 32-34) | lesion score reduction compared to saline ([5]; triamcinolone 0.15 mg/mL, Day 35) | lesion score reduction compared to saline ([5]; triamcinolone 0.15 mg/mL, Days 4, 8, 10, 11) | erythema reduction compared to saline (colorimeter) ([5]; triamcinolone spray 0.15 mg/mL, Days 12, 14, 19, 24-26, 28-33, and 35-41 (P≤0.0912))
1 | CNS(=O)(=O)C[C@H]1CC[C@H](N(C)c2ncnc3[nH]ccc23)CC1 [oclacitinib, N-methyl-1-{trans-4-[methyl (7H-pyrrolo[2,3-d]pyrimidin-4-yl)amino]cyclohexyl}-methanesulfonamide] | 212 | at least 5 times | Accumulation in skin and plasma was observed | at a concentration that has shown efficacy in reducing IL-31 induced itch | < 5 | prolonged absorption with the terminal phase not evident 10 days post dose | comparable | greater than 12 ng/ml | acceptable skin concentrations | significantly greater reduction in erythema | significantly lower | significantly greater reduction | continued to demonstrate significant reduction in lesion scores | significant erythema reductions | significantly higher | significantly greater lesion score reductions | significantly greater lesion score reductions |  |  | 
2 | oclacitinib maleate |  |  |  |  |  |  | comparable |  |  |  |  |  |  |  |  |  |  |  |  | 
3 | CC1(C)O[C@@H]2C[C@H]3[C@@H]4CCC5=CC(=O)C=C[C@]5(C)[C@@]4(F)[C@@H](O)C[C@]3(C)[C@]2(C(=O)CO)O1 [triamcinolone, triamcinolone acetonide] |  |  |  |  |  |  |  |  |  |  |  |  |  |  | significantly higher |  |  | significantly lesser reduction | significantly greater reductions in lesion scores | significantly less reduction in erythema
